Experimental data from ChEMBL document CHEMBL1156967 (Bioorg Med Chem Lett, 2010).
pIC50: −log10 of the molar value.

Experiments:
[1] = target: Mitogen-activated protein kinase 11 (Homo sapiens, UniProt Q15759); test: Inhibition of p38beta assessed as gamma-[33P]ATP incorporation by scintillation counting
Rattus norvegicus [2] = test: Antiinflammatory activity in Lewis rat plasma assessed as reduction in LPS-stimulated TNFalpha accumulation at 5 mg/kg, ig administered 4 hrs before LPS challenge measured after […] by ELISA; type: functional; conditions: po, route intragastric
[3] = target: Mitogen-activated protein kinase 14 (Homo sapiens, UniProt Q16539); test: Inhibition of p38alpha assessed as gamma-[33P]ATP incorporation by scintillation counting
Chain of Mitogen-activated protein kinase 14 (Q16539 whole entry): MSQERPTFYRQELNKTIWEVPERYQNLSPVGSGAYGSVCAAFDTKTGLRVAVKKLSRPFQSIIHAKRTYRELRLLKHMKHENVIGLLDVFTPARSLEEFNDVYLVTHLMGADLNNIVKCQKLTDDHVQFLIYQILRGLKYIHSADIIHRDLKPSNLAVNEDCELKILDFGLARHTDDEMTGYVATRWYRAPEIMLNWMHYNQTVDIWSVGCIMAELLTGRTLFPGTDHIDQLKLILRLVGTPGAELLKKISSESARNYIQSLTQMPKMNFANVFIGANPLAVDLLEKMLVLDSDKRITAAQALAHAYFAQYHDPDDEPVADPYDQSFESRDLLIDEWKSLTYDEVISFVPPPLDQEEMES

[4] = Selectivity ratio of IC50 for p38 beta to IC50 for p38alpha
Rattus norvegicus [5] = test: Antiinflammatory activity in Lewis rat assessed as reduction in LPS-stimulated TNFalpha accumulation at 1 mg/kg, ig administered 4 hrs before LPS challenge measured after […] by ELISA; type: functional; conditions: po, route intragastric
Rattus norvegicus [6] = test: Antiinflammatory activity in Lewis rat plasma assessed as reduction in LPS-stimulated TNFalpha accumulation at 20 mg/kg, ig administered 4 hrs before LPS challenge measured after […] by ELISA; type: functional; conditions: po, route intragastric
Blood = test: Antiinflammatory activity against LPS-induced TNFalpha production in human whole blood treated 1 hr before LPS challenge measured after 4 hrs by ELISA; type: functional, tissue-based
Mus musculus = test: Antiarthritic activity against collagen-induced arthritis in DBA/1 mouse chronic CIA model assessed as incidence of arthritis at 30 mg/kg, po after 21 days; type: functional
[7] = Half life in human liver microsomes; type: ADME, Microsome
hERG (KCNH2) = hERG (KCNH2) (Homo sapiens, UniProt Q12809); test: Displacement of dofetilide from human ERG at 10 uM; conditions: probe dofetilide
Chain of hERG (KCNH2) (Q12809 whole entry): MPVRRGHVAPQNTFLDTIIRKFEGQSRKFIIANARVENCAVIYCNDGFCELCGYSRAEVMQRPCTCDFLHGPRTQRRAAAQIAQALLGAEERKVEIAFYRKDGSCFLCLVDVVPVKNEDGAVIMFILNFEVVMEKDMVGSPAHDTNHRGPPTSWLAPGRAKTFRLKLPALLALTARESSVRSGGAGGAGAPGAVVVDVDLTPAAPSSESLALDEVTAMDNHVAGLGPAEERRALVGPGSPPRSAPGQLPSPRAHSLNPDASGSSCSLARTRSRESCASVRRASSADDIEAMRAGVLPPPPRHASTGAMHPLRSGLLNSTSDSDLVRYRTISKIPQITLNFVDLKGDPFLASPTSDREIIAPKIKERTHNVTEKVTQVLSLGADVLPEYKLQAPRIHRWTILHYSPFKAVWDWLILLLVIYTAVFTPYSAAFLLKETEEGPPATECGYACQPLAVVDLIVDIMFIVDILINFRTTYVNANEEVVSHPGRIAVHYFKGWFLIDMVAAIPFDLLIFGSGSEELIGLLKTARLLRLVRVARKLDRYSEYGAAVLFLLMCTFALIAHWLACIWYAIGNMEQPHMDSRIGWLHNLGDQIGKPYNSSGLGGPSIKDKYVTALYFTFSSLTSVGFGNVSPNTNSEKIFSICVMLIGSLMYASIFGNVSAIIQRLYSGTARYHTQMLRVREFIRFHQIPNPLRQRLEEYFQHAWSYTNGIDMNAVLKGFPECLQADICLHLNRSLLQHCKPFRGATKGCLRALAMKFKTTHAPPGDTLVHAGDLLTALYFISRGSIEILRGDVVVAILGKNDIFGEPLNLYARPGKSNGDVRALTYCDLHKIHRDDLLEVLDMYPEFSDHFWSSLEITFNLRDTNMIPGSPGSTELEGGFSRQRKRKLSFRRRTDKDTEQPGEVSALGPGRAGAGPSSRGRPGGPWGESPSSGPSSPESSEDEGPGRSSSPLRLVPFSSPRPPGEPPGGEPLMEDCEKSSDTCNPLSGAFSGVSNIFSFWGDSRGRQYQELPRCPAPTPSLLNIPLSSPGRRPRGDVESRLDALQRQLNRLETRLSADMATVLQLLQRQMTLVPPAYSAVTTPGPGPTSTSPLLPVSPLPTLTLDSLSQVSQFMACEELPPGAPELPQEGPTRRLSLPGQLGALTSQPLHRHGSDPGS

[8] = Intrinsic clearance in human liver microsomes; type: ADME, Microsome
[9] = Volume of distribution in dog at 2.5 mg/kg, iv; type: ADME, organism-based, Canis lupus familiaris; parameters: dose 2.5 mg/kg, route intravenous; conditions: in vivo
[10] = Half life in rat at 5 mg/kg, iv; type: ADME, organism-based; parameters: dose 5 mg/kg, route intravenous; conditions: in vivo
[11] = Bioavailability in rat at 5 mg/kg, iv; type: ADME, organism-based; conditions: in vivo
[12] = Clearance in rat at 5 mg/kg, iv; type: ADME, organism-based; parameters: dose 5 mg/kg, route intravenous; conditions: in vivo
[13] = Clearance in dog at 2.5 mg/kg, iv; type: ADME, organism-based, Canis lupus familiaris; parameters: dose 2.5 mg/kg, route intravenous; conditions: in vivo
[14] = Half life in dog at 2.5 mg/kg, iv; type: ADME, organism-based, Canis lupus familiaris; parameters: dose 2.5 mg/kg, route intravenous; conditions: in vivo
[15] = Bioavailability in dog at 2.5 mg/kg, iv; type: ADME, organism-based, Canis lupus familiaris; conditions: in vivo
[16] = Volume of distribution in rat at 5 mg/kg, iv; type: ADME, organism-based; parameters: dose 5 mg/kg, route intravenous; conditions: in vivo

Chain of Mitogen-activated protein kinase 11 (Q15759 whole entry): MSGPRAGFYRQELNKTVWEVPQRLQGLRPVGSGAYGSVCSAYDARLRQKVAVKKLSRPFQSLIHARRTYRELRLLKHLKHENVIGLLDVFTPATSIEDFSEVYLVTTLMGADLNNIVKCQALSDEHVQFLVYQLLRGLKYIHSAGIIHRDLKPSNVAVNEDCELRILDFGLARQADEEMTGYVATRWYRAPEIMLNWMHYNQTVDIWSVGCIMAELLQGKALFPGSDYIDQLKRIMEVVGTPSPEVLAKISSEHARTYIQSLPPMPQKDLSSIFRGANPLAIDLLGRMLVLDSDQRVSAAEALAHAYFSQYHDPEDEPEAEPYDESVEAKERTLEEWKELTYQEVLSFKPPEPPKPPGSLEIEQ

| SMILES | pIC50 [1] | inhibition in vivo at 5 mg/kg (Rattus norvegicus [2]) [%] | pIC50 [3] | inhibition in vivo at 1 mg/kg (Rattus norvegicus [5]) [%] | Activity (Mus musculus) [%] | half-life [7] [min] | CLint scaled [8] [mL/min/kg] | other results |
| --- | --- | --- | --- | --- | --- | --- | --- | --- |
| CN1CCC(c2[nH]nc(-c3cccc(Cl)c3)c2-c2ccncc2)CC1 | 5.98 | 27 | – | – | – | – | – | – |
| CN1CCCC(c2[nH]nc(-c3ccc(F)cc3)c2-c2ccncc2)C1 (stereo unspecified) | 5.60 | 63 | 7.05 | – | – | – | – | Ratio IC50 [4]: 28 |
| CN1CCC(c2[nH]nc(-c3cccc(C(F)(F)F)c3)c2-c2ccncc2)CC1 | 6.79 | 6 | 7.58 | – | – | – | – | – |
| COCC(=O)N1CCC(c2[nH]nc(-c3ccc(Cl)cc3)c2-c2ccncn2)CC1 | 5.49 | 88 | – | 71 | – | – | – | – |
| Cc1cccc(-c2n[nH]c(C3CCN(C)CC3)c2-c2ccncc2)c1 | 5.63 | – | 7.17 | – | – | – | – | inhibition in vivo at 20 mg/kg (Rattus norvegicus [6]): 81% |
| CC(C)(CO)N1CCC(c2[nH]nc(-c3ccc(Cl)cc3)c2-c2ccncn2)CC1 | 5.56 | 0 | 6.74 | – | – | – | – | – |
| COCCCN1CCC(c2[nH]nc(-c3ccc(Cl)cc3)c2-c2ccncc2)CC1 | 5.18 | – | 6.97 | – | – | – | – | – |
| NS(=O)(=O)N1CCC(c2[nH]nc(-c3ccc(Cl)cc3)c2-c2ccncc2)CC1 | 5.78 | 68 | 7.85 | – | – | – | – | – |
| O=C(O)CN1CCC(c2[nH]nc(-c3ccc(Cl)cc3)c2-c2ccncc2)CC1 | 5.36 | 20 | 6.90 | – | – | – | – | – |
| OCCN1CCC(c2[nH]nc(-c3ccc(Cl)cc3)c2-c2ccncn2)CC1 | 5.60 | 88 | 7.46 | 80 | 61 | 47.6 | 21.4 | pIC50 (Blood): 6.31; inhibition at 10 µM (hERG (KCNH2)): 46% |
| CN1CCC(c2[nH]nc(-c3ccc(Cl)cc3)c2-c2ccncn2)CC1 | 5.63 | 63 | – | 36 | 20 | 31.2 | 31.5 | pIC50 (Blood): 6.10; inhibition at 10 µM (hERG (KCNH2)): 51% |
| O=C(CO)N1CCC(c2[nH]nc(-c3ccc(Cl)cc3)c2-c2ccncc2)CC1 | 5.75 | 85 | – | – | 60 | 62 | 15.8 | inhibition at 10 µM (hERG (KCNH2)): 24% |
| CN(C)CC(=O)N1CCC(c2[nH]nc(-c3ccc(Cl)cc3)c2-c2ccncc2)CC1 | 5.17 | 85 | 7.10 | – | – | – | – | – |
| Clc1ccc(-c2n[nH]c(C3CCN(Cc4ccncc4)CC3)c2-c2ccncn2)cc1 | 5.48 | 27 | 7.33 | – | – | – | – | – |
| O=C(CO)N1CCC(c2n[nH]c(-c3ccc(Cl)cc3)c2-c2ccncn2)CC1 [SD-0006] | 5.46 | 87 | – | 81 | 16 | > 120 | < 8 | Vd [9]: 1.07 L/kg; half-life [10]: 243 min; bioavailability [11]: > 80%; clearance [12]: 4.96 mL/min/kg; clearance [13]: 2.92 mL/min/kg; half-life [14]: 269 min; bioavailability [15]: > 80%; Vd [16]: 1.74 L/kg; inhibition at 10 µM (hERG (KCNH2)): 16% |
| Fc1ccc(-c2n[nH]c(C3CCNCC3)c2-c2ccncc2)cc1 | 6.29 | 2 | 7.60 | – | – | – | – | – |
| CC(=O)N1CCC(c2[nH]nc(-c3ccc(Cl)cc3)c2-c2ccncn2)CC1 | 5.43 | 90 | 6.82 | 72 | 50 | 102 | 9.5 | – |

| SMILES | pIC50 [1] | inhibition in vivo at 5 mg/kg (Rattus norvegicus [2]) [%] | pIC50 [3] | inhibition in vivo at 1 mg/kg (Rattus norvegicus [5]) [%] | Activity (Mus musculus) [%] | half-life [7] [min] | CLint scaled [8] [mL/min/kg] | other results |
| --- | --- | --- | --- | --- | --- | --- | --- | --- |
| CN1CCC(c2[nH]nc(-c3ccc(Cl)cc3)c2-c2ccncc2)CC1 | 5.57 | 71 | 7.50 | – | – | – | – | Ratio IC50 [4]: 84 |
| OCCN1CCC(c2[nH]nc(-c3ccc(Cl)cc3)c2-c2ccncc2)CC1 | 5.47 | 88 | 7.39 | – | 70 | 30.5 | 32 | inhibition at 10 µM (hERG (KCNH2)): 61% |
| CN1CCC(c2[nH]nc(-c3ccc(F)cc3)c2-c2ccncc2)CC1 | 5.71 | 77 | 7.26 | – | – | – | – | Ratio IC50 [4]: 35 |
| Cc1ccc(-c2n[nH]c(C3CCN(C)CC3)c2-c2ccncc2)cc1 | 5.51 | – | 7.00 | – | – | – | – | inhibition in vivo at 20 mg/kg (Rattus norvegicus [6]): 44% |
| CS(=O)(=O)N1CCC(c2[nH]nc(-c3ccc(Cl)cc3)c2-c2ccncn2)CC1 | 5.39 | 89 | 6.70 | 26 | 44 | 53.9 | 18.1 | pIC50 (Blood): < 5.30 |
| COCCN1CCC(c2[nH]nc(-c3ccc(Cl)cc3)c2-c2ccncc2)CC1 | 5.17 | 84 | 7.15 | – | 22 | 21.5 | 47.7 | inhibition at 10 µM (hERG (KCNH2)): 74% |
| CC(=O)N1CCC(c2[nH]nc(-c3ccc(Cl)cc3)c2-c2ccncc2)CC1 | 5.50 | 66 | 7.17 | – | 50 | 43.3 | 22.5 | – |
| Clc1ccc(-c2n[nH]c(C3CCN(C4CCOC4)CC3)c2-c2ccncn2)cc1 (stereo unspecified) | 5.13 | 70 | 7.51 | 80 | 50 | 61.3 | 16.3 | pIC50 (Blood): 6.28; inhibition at 10 µM (hERG (KCNH2)): 35% |
| CC(C)(O)CN1CCC(c2[nH]nc(-c3ccc(Cl)cc3)c2-c2ccncn2)CC1 | 5.01 | 34 | 7.06 | 3 | – | – | – | pIC50 (Blood): 6.00 |
| O[C@H]1CCC[C@@H]1N1CCC(c2[nH]nc(-c3ccc(Cl)cc3)c2-c2ccncn2)CC1 | 5.47 | 70 | 7.72 | 40 | – | – | – | – |
| COCC(=O)N1CCC(c2[nH]nc(-c3ccc(Cl)cc3)c2-c2ccncc2)CC1 | 5.46 | 90 | – | – | – | – | – | – |
| Fc1ccc(-c2n[nH]c(C3CCCNC3)c2-c2ccncc2)cc1 (stereo unspecified) | 6.39 | – | 7.32 | – | – | – | – | Ratio IC50 [4]: 6 |
| CN(C)C(=O)N1CCC(c2[nH]nc(-c3ccc(Cl)cc3)c2-c2ccncn2)CC1 | 5.46 | 88 | 7.06 | 53 | – | – | – | – |
| CN1CCC(c2[nH]nc(-c3ccc(C(F)(F)F)cc3)c2-c2ccncc2)CC1 | 5.42 | 22 | 7.39 | – | – | – | – | – |
| CS(=O)(=O)N1CCC(c2[nH]nc(-c3ccc(Cl)cc3)c2-c2ccncc2)CC1 | 5.45 | 75 | 7.15 | – | – | – | – | – |
| Clc1ccc(-c2n[nH]c(C3CCN(C4CCOCC4)CC3)c2-c2ccncn2)cc1 | 5.02 | 46 | 6.69 | – | – | – | – | pIC50 (Blood): < 5.30 |
